We go through eleven compounds from ChEMBL document CHEMBL6182848, “Phenyl-benzyl-ureas with pyridazinone motif: Potent soluble epoxide hydrolase inhibitors with enhanced pharmacokinetics and efficacy in a paclitaxel-induced neuropathic pain model” (Eur J Med Chem, 2025).

Broadly, the IC50 is the midpoint of a concentration-inhibition curve. Usually half-life stands for the time needed for the level to fall by half in the phase considered. In general, Papp refers to a coefficient for how fast a substance crosses the barrier. Read a high Papp as ready permeation. In general, bioavailability refers to the share of a dose that reaches the circulation, judged against a reference dose that is usually intravenous. Low readings indicate little systemic uptake, high ones much systemic uptake. What is called Cmax is the highest concentration seen after dosing. As usually defined, the MRT is a mean duration of stay, worked out from the concentration-time curve. The term clearance denotes the volume of plasma or blood freed of the substance per unit of time. Low readings indicate inefficient removal, high ones efficient removal. What is called AUC(0-inf) is the area under the concentration-time curve extrapolated to infinity. A high value points to high exposure.

Calls of active or inactive are those of the source.

Series [1] deals with T1, Bifunctional epoxide hydrolase 2 (Homo sapiens, UniProt P34913).
T1 sequence (P34913 whole entry): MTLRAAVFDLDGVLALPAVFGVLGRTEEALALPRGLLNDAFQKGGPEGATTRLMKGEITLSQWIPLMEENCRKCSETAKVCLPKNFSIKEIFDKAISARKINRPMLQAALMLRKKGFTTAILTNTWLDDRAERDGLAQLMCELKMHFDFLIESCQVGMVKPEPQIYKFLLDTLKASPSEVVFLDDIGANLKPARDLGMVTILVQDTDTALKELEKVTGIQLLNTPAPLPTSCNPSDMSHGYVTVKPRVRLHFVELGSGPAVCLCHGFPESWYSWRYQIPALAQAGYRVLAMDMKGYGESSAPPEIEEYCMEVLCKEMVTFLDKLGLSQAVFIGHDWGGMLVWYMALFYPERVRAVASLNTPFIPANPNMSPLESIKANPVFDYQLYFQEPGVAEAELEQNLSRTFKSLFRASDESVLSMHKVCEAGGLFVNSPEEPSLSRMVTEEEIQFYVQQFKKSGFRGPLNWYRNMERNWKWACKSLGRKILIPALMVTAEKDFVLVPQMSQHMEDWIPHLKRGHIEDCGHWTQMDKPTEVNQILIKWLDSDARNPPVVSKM
Nature of the series: Inhibition of human recombinant sEH expressed in baculovirus infected Sf9 cells using PHOME as substrate preincubated for 10 mins followed by substrate addition measured after 60 mins by fluorescence based assay. It is filed as cell-based.

The nature of series [2]: Permeability coefficient of compound in PBS at pH 7.4 at 10 uM incubated for 16 hrs PAMPA-BBB assay. For orientation: The PAMPA barrier holds no transporters, so it reflects passive diffusion.
Series [3] is described as follows: Metabolic stability in human liver microsomes assessed as half life measured up to 60 mins in presence of NADPH by LC-MS/MS analysis. The format is ADME, Microsome.
The nature of series [4]: Metabolic stability in human liver microsomes assessed as intrinsic clearance measured up to 60 mins in presence of NADPH by LC-MS/MS analysis. It is filed as ADME, Microsome. The settings on record: 1 h.
The nature of series [5]: Metabolic stability in mouse liver microsomes assessed as half life measured up to 60 mins in presence of NADPH by LC-MS/MS analysis. The format is ADME, Microsome.
In series [6] the test system is Mus musculus. Put plainly: Analgesic activity in PTX-induced neuropathic pain male C57BL/6 mouse model assessed as improvement in mechanical paw withdrawal threshold at 60 mg/kg, po administered for 14 days by Von Frey test. It is filed as functional, organism-based. The settings on record: time 14.0 day.
Series [7] relates to Mus musculus. Put plainly: Analgesic activity in PTX-induced neuropathic pain male C57BL/6 mouse model assessed as improvement in mechanical paw withdrawal threshold at 60 mg/kg, po measured up to 4 hrs by Von Frey test. The format is functional, organism-based.
Series [8] can be described thus: Toxicity in PTX-induced neuropathic pain male C57BL/6 mouse model assessed as change in body weight at 60 mg/kg/day, po treated for 14 days. The settings on record: in vivo, 336 h, time 14 day. It is filed as organism-based.
For series [9], the system named is PBMC. Put plainly: Anti-inflammatory activity in LPS-induced human PBMC assessed as reduction in TNF-alpha level pre-incubated with compound for 30 mins followed by LPS stimulation and measured after 6 hrs by ELISA. The settings on record: dose 1-1000 nM, time 390.0 min. The format is functional, cell-based. On the technique in general: ELISA stands for enzyme-linked immunosorbent assay.

A short description of series [10]: Cytotoxicity against human PBMC at 10 uM incubated for 24 hrs by MTT assay. The format is toxicity, cell-based. (In general: Formazan colour is commonly taken as a measure of viable cells.)
Series [11] is described as follows: Oral bioavailability in male CD-1 mouse at 10 mg/kg measured up to 24 hrs by LC-MS/MS analysis. The format is ADME, organism-based. The settings on record: in vivo.
Series [12] in a line: Volume of distribution at steady state in male CD-1 mouse at 2 mg/kg, iv measured up to 24 hrs by LC-MS/MS analysis. It is filed as ADME, organism-based. The settings on record: in vivo, read-out: Vdss.
A short description of series [13]: Cmax in male CD-1 mouse at 10 mg/kg, po measured up to 24 hrs by LC-MS/MS analysis. The settings on record: in vivo. The format is ADME, organism-based.
The nature of series [14]: MRT in male CD-1 mouse at 2 mg/kg, iv measured up to 24 hrs by LC-MS/MS analysis. It is filed as ADME, organism-based. The settings on record: in vivo.
Series [15] is described as follows: Clearance in male CD-1 mouse at 2 mg/kg, iv measured up to 24 hrs by LC-MS/MS analysis. It is filed as ADME, organism-based. The settings on record: in vivo.
A short description of series [16]: Half life in male CD-1 mouse at 2 mg/kg, iv measured up to 24 hrs by LC-MS/MS analysis. It is filed as ADME, organism-based. The settings on record: in vivo.
The subject of series [17] is Mus musculus. Nature of the series: Analgesic activity in PTX-induced neuropathic pain male C57BL/6 mouse model assessed as improvement in mechanical paw withdrawal threshold at 10 mg/kg, po measured up to 4 hrs by Von Frey test. It is filed as functional, organism-based.
Series [18] has as its system PBMC. Put plainly: Anti-inflammatory activity in LPS-induced human PBMC assessed as reduction in IL-6 level pre-incubated with compound for 30 mins followed by LPS stimulation and measured after 6 hrs by ELISA. The format is functional, cell-based. The settings on record: dose 1-1000 nM.
Series [19] relates to Mus musculus. Put plainly: Analgesic activity in PTX-induced neuropathic pain male C57BL/6 mouse model assessed as improvement in mechanical paw withdrawal threshold at 30 mg/kg, po administered for 14 days by Von Frey test. The format is functional, organism-based. The settings on record: time 14.0 day.
A short description of series [20]: Half life in male CD-1 mouse at 10 mg/kg, po measured up to 24 hrs by LC-MS/MS analysis. The format is ADME, organism-based. The settings on record: in vivo.
Series [21] in a line: MRT in male CD-1 mouse at 10 mg/kg, po measured up to 24 hrs by LC-MS/MS analysis. It is filed as ADME, organism-based. The settings on record: in vivo.
Series [22] relates to Mus musculus. Put plainly: Analgesic activity in PTX-induced neuropathic pain male C57BL/6 mouse model assessed as improvement in mechanical paw withdrawal threshold at 10 to 30 mg/kg, po measured for 2 to 4 hrs by Von Frey test. The settings on record: dose 10-30 mg/kg, time 2-4 hrs. The format is functional, organism-based.
A short description of series [23]: AUC (0 to infinity) in male CD-1 mouse at 2 mg/kg, iv measured up to 24 hrs by LC-MS/MS analysis. It is filed as ADME, organism-based. The settings on record: in vivo.
Series [24] can be described thus: AUC (0 to infinity) in male CD-1 mouse at 10 mg/kg, po measured up to 24 hrs by LC-MS/MS analysis. The format is ADME, organism-based. The settings on record: in vivo.
In series [25] the test system is Mus musculus. Nature of the series: Analgesic activity in PTX-induced neuropathic pain male C57BL/6 mouse model assessed as improvement in mechanical paw withdrawal threshold at 30 mg/kg, po measured up to 4 hrs by Von Frey test. The format is functional, organism-based.
A short description of series [26]: C0 in male CD-1 mouse at 2 mg/kg, iv measured up to 24 hrs by LC-MS/MS analysis. It is filed as ADME, organism-based. The settings on record: in vivo.

On to `O=C(NCc1ccccc1)Nc1ccc(-c2ccc(=O)[nH]n2)cc1`, for which the IC50 in series [1] is over 100 nM.
On the same count and under the same terms, the same measure for `O=C(NCc1cccc(C(F)(F)F)c1)Nc1ccc(-c2ccc(=O)[nH]n2)cc1`: at least 100 nM.
For `CN(Cc1cnc2nc(N)nc(N)c2n1)c1ccc(C(=O)N[C@@H](CCC(=O)O)C(=O)O)cc1` [METHOTREXATE], the Kp in series [2] (16 h, 10 µM) was 0.001 ×10⁻⁶ cm/s.
Take `O=C(NCc1ccccc1C(F)(F)F)Nc1ccc(-c2ccc(=O)[nH]n2)cc1`: the half-life in [3] and in series [5] was over 3.08 h throughout. Besides, the CLH in series [4] was under 7.5 µL/min/mg.
Turning to `O=C(NCc1ccc(C(F)(F)F)cc1)Nc1ccc(-c2ccc(=O)[nH]n2)cc1`, in [1], the IC50 is at least 100 nM.
Take `Cn1nc(-c2ccc(NC(=O)NCc3ccccc3C(F)(F)F)cc2)ccc1=O`: the half-life in series [3] and in series [5] was over 3.08 h each time. The CLH in [4] was under 7.5 µL/min/mg.
For `O=C(Cc1ccccc1C(F)(F)F)Nc1ccc(-c2ccc(=O)[nH]n2)cc1`, in series [1], the IC50 is over 100 nM.
As for `COc1ccc(CNC(=O)Nc2ccc(-c3ccc(=O)[nH]n3)cc2)c(C(F)(F)F)c1`, the half-life in [3] is over 3.08 h; in [5] it was 0.393 h. Moreover, the CLH in series [4] is under 7.5 µL/min/mg.
For `NCC1(CC(=O)O)CCCCC1` [GABAPENTIN], the Activity result in the series with Mus musculus [6] is “Active; Compound Effect Noticeably Decreased With Prolonged Administration”; in the series on Mus musculus [7], “Active; Exhibited Consistent And Prolonged Effect”; in [8], “Non-toxic”.
As for `O=C(NCc1ccccc1OC(F)(F)F)Nc1ccc(-c2ccc(=O)[nH]n2)cc1`, the Papp at 16 h, 10 µM in series [2] was determined as 3.83 ×10⁻⁶ cm/s. The Activity entry was “Dose-dependent-effect” with PBMC [9]; “Non-toxic” in [10]; “Dose-dependent-effect” in the series on PBMC [18]; “Active; Effect Was Lower Than Gabapentin With Chronic Use, But Its Efficacy Remained Stable” with Mus musculus [19]. The bioavailability in series [11] worked out at 78%. In addition, the Vd in [12] is 1.02 L/kg. In series [13], this compound yielded a Cmax of 4700 ng/mL. Besides, the figures for the MRT in [14] and in [21] were 3.5 h and 5.23 h, respectively. The clearance in series [15] was found to be 4.8 mL/min/kg. Also, the half-life is 3.21 h in [16], 2.43 h in [20], over 3.08 h in series [3] and over 3.08 h in series [5]. Further, the outcome in the series with Mus musculus [17] was inactive. For the same compound, the outcome in the series on Mus musculus [22] and with Mus musculus [25] was Active. Besides, the AUC(0-inf) in series [23] was 7630 ng·h/mL; in series [24], 29700 ng·h/mL. For the same compound, the CLH in series [4] is under 7.5 µL/min/mg. Moreover, in series [26], the C0 at 24 h amounted to 4640 ng/mL.
Take `O=C(NCc1ccccc1F)Nc1ccc(-c2ccc(=O)[nH]n2)cc1`: the IC50 in [1] is at least 100 nM.
